Changes are numbered by the printed parent chain.
Legend:
[1] = tested on: human airway epithelial cultures; conditions: background description; cited from earlier work
[2] = target: T1, GFP-hHv1 G199C mutant (Homo sapiens, UniProt Q96D96, G199C); assay: Patch-clamp currents of GFP-hHv1 G199C mutant in transfected HEK cells; type: cell-based; conditions: G199C mutant (engineered Cys at residue 199); FIG. 3
T1 construct: expressed in transfected cells; host or cells: HEK-293 cell clone HM1 (stably expresses the human muscarinic M1 receptor)
T1 sequence (Q96D96 1-273 G199C): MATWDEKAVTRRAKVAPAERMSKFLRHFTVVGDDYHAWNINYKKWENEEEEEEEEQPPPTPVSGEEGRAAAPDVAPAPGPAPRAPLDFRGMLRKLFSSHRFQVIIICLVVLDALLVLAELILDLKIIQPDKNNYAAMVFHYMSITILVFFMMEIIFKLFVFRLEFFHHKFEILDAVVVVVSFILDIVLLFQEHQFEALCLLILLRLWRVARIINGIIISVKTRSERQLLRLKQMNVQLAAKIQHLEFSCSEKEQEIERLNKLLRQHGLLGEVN

[3] = target: T2, wt GFP-hHv1 (Homo sapiens, UniProt Q96D96); assay: Patch-clamp currents of wt GFP-hHv1 in transfected HEK cells; type: cell-based; conditions: wild-type channel
T2 construct: expressed in transfected cells; host or cells: HEK-293 cell clone HM1 (stably expresses the human muscarinic M1 receptor)
T2 sequence (Q96D96 1-273): T1 sequence (Q96D96 1-273 G199C) with C199G

[4] = tested on: T lymphocytes; conditions: one day after stimulation; cited from earlier work

Row | SMILES | effect on acid secretion across the epithelium [1] | further results
1 | Cc1nc2c(OCc3ccccc3)cccn2c1CC#N [Sch-28080] | not | 
2 | C[N+](C)(C)CCSS(C)(=O)=O [MTSET, 2-(trimethylammonium)methanethiosulfonate] |  | effect on hHv1 currents [2]: modulate hHv1 currents; effect on wt GFP-hHv1 currents [3]: little effect
3 | NCCc1c[nH]cn1 [histamine] | stimulated | 
4 | [Cl-].[Cl-].[Zn+2] [ZnCl2] | inhibited | 
5 | C[C@@H]1O[C@@H](O[C@H]2C[C@@H](O)[C@]3(CO)[C@H]4[C@H](O)C[C@]5(C)[C@@H](C6=CC(=O)OC6)CC[C@]5(O)[C@@H]4CC[C@]3(O)C2)[C@H](O)[C@H](O)[C@H]1O [ouabain] | not | 
6 | Nc1ncnc2c1ncn2[C@@H]1O[C@H](COP(=O)(O)OP(=O)(O)OP(=O)(O)O)[C@@H](O)[C@H]1O [ATP] | stimulated | 
7 | CCCCCCCCCCCCCC(=O)O[C@@H]1[C@@H](C)[C@@]2(O)[C@@H](C=C(CO)C[C@]3(O)C(=O)C(C)=C[C@@H]23)[C@@H]2C(C)(C)[C@]12OC(C)=O [PMA, phorbol 12-myristate 13-acetate] |  | increase of H+ currents in T lymphocytes [4]: 13 fold
8 | CO/C1=C\C(C)=C\[C@@H](C)[C@@H](O)[C@@H](C)C/C(C)=C/C=C/[C@H](OC)[C@@H]([C@@H](C)[C@@H](O)[C@H](C)[C@@]2(O)C[C@@H](O)[C@H](C)[C@@H](C(C)C)O2)OC1=O [bafilomycin A1] | not | 
9 | N=C(N)NC(=O)c1nc(Cl)c(N)nc1N [amiloride] | not | 
